Test results reported in article PMC12410356 (International Journal for Parasitology: Drugs and Drug …, 2025).

Key:
[1] = tested on: E. multilocularis metacestode vesicles; assay: Metacestode vesicle viability assay (ATP, CellTiter-Glo); format: cell-based, Echinococcus multilocularis
Protocol: Viability was assessed after 12 days using the same metacestode vesicles as for the PGI release assay. Triton X-100 was added to each well to a final concentration of 0.1 %. Subsequently the metacestode vesicles were broken mechanically and 50 μL of the supernatant was mixed with 50 μL of CellTiter-Glo® buffer (Promega, Dübendorf, Switzerland). Measurements were performed on a HIDEX Sense microplate reader.

[2] = tested on: E. multilocularis metacestode vesicles; assay: Phosphoglucose isomerase (PGI) release assay (damage-marker release) on metacestode vesicles; format: cell-based, Echinococcus multilocularis; conditions: 10 μM; for PGI d5 (relative PGI release): 5 days; for PGI d12 (relative PGI release): 12 days
[3] = overview screen, 10 μM, singlets, 12 days, relative to DMSO control
[4] = overview screen, singlets, relative to 0.1 % Triton X-100, DMSO subtracted
[5] = confirmation screen, 10 μM, triplicates, mean, 12 days
[6] = confirmation screen, triplicates, mean

| SMILES | Viability d12 (relative viability) [1, 3] | PGI d5 (relative PGI release) [2, 4] | PGI d12 (relative PGI release) [2, 4] | also measured |
| --- | --- | --- | --- | --- |
| O=C1[C@H](CC[C@H](O)c2ccc(F)cc2)[C@@H](c2ccc(O)cc2)N1c1ccc(F)cc1 [MMV1581377] | 84.8656% | -0.5323% | 22.6699% |  |
| Nc1ccc2oc(=O)ccc2c1I [MMV1581378] | 90.9948% | 0.09331% | -19.2105% |  |
| O=c1cc(Nc2ccc3ccccc3c2)[nH]c(=O)[nH]1 [MMV1581546] | 58.2809% | -1.553% | -12.1764% |  |
| CC(C)(C)OC(=O)NCc1ccc(C(=O)N[C@H]2CCOC2=O)cc1 [MMV1581547] | 30.2259% | -1.162% | 45.6301% |  |
| CC(C)(C)c1cccc(-c2nc3cc(C(=N)N)ccc3[nH]2)c1O [MMV1581548] | 76.2328% | -1.312% | -24.7037% |  |
| CCc1nc(N)nc(N)c1C#CCc1ccccc1 [MMV1581549] | 82.8379% | -0.3014% | -5.576% |  |
| OC1O[C@H](CSc2ccc(F)cc2)[C@@H](O)[C@H]1O (some centres unmarked) [MMV1581550] | 95.5206% | -2.303% | -13.5328% |  |
| c1ccc(-c2nnc3c4ccccc4c(N4CCNCC4)nn23)cc1 [MMV1581551] | 63.6248% | -2.787% | -25.7664% |  |
| O=C(Nc1ccccc1)N(Cc1cc(Br)ccc1O)c1ccc(F)cc1 [MMV1581552] | 81.6601% | -0.185% | -25.2603% |  |
| COc1ccc2c(c1)cc(CNC(=O)c1cc3ccccc3o1)n2CC(=O)O [MMV1581553] | 73.1434% | -2.902% | -25.8097% |  |
| Nc1cc(N)c2nc(-c3ccccc3)c(Nc3ccc(F)cc3)nc2c1 [MMV1581554] | 104.705% | 4.452% | -9.136% |  |
| Nc1cccc(-c2nc(N)nc(NC3Cc4ccccc4C3)n2)c1 [MMV1581555] | 66.1297% | 2.438% | -5.225% |  |
| NC(=O)c1[nH]c2ccc(S(N)(=O)=O)cc2c1-c1ccccc1 [MMV1581556] | 154.578% | 1.2% | 0.8963% |  |
| O=C(N[C@H](CCS)C(=O)N[C@H](Cc1ccccc1)C(=O)O)c1cc2ccccc2[nH]1 [MMV1581557] | 26.3851% | -0.9852% | -10.8141% |  |
| Cc1cccc(C)c1C(=O)Nc1nc(-c2ccccn2)cc2ccccc12 [MMV1581558] | 99.5465% | 1.519% | 3.408% |  |
| CC(C)Cn1c(=O)n(C)c(=O)c2c(-c3cncn3C)n(Cc3cccc4ccccc34)nc21 [MMV1581559] | 31.7083% | -0.3605% | 37.1265% |  |
| CC(=N)N1CC[C@H](SC2=C(C(=O)O)N3C(=O)[C@@H]([C@@H](C)O)[C@H]3C2)C1 [MMV1582382] | 19.8723% | -2.073% | -11.6677% |  |

| SMILES | Viability d12 (relative viability) [1, 3] | PGI d5 (relative PGI release) [2, 4] | PGI d12 (relative PGI release) [2, 4] | also measured |
| --- | --- | --- | --- | --- |
| CCCCCCCCC(CP(=O)(O)C(C)N)C(=O)O (centres unmarked) [MMV1582487] | 34.1503% | -0.4977% | -10.5393% |  |
| Cl.Nc1nc(-c2ccccc2)nc2c1ncn2[C@@H]1O[C@H](COS(=O)(=O)NC(=O)c2ccccc2O)[C@@H](O)[C@H]1O [MMV1582488] | 117.234% | -1.401% | 11.4821% |  |
| Cc1c[nH]c(=O)nc1NCc1ccccc1 [MMV1582489] | 140.789% | -0.6323% | -1.8719% |  |
| CCc1cc(Cc2cnc(N)nc2N)cc2c1N(C)CCC2C (centres unmarked) [MMV1582490] | 27.4864% | 9.437% | 80.495% | Viability d12 (relative viability) [1, 5]: 117.48%; PGI d5 (relative PGI release) [2, 6]: 0.0536%; PGI d12 (relative PGI release) [2, 6]: -0.39% |
| O=C(CCCC(F)(F)F)N1CCC(c2nc(-c3nccs3)no2)CC1 [MMV1582491] | 18.4528% | 0.6914% | 59.8611% | Viability d12 (relative viability) [1, 5]: 57.90%; PGI d5 (relative PGI release) [2, 6]: -0.08%; PGI d12 (relative PGI release) [2, 6]: -0.04% |
| Cc1nc(-c2ccc(C3N(C)c4ccc(F)cc4C(=O)N3c3ccccc3)s2)cs1 (centres unmarked) [MMV1582492] | 101.198% | -1.6173% | -12.6909% |  |
| C[C@@H](NC(=O)c1ccccc1-c1ccccc1)B(O)O [MMV1582493] | 135.265% | -2.006% | 35.0936% |  |
| C[C@@H](O)[C@H](N)C(=O)NS(=O)(=O)c1cccc(-c2ccc3[nH]ncc3c2)c1.Cl.Cl [MMV1582494] | 90.2603% | -2.197% | -25.2892% |  |
| C(=C\c1nc2ccccc2[nH]1)/c1ccc2c(c1)OCO2 [MMV1582495] | 98.8605% | -1.5423% | -10.1943% |  |
| N#Cc1c(F)c(Cl)c(NCc2ccccc2)c(C#N)c1F [MMV1582496, 4-(benzylamino)-5-chloro-2,6-difluorobenzene-1,3-dicarbonitrile] |  | 23.5135% | 27.7197% | viability at 10 µM ([1]; Echinococcus multilocularis, 288 h, overview screen, 10 μM, singlets, 12 days, relative to DMSO control, read-out: Viability d12 (relative viability)): 121%; effect on metacestode vesicle viability (in words) ([1]; overview screen, 10 μM, twelve days, cut-off viability ≤30 %): did not reduce the metacestode vesicle viability; activity in the PGI release assay (in words) ([2]; overview screen, twelve days, cut-off PGI release ≥20 %): active in the PGI assay after twelve days |
| CC(C)c1ccc(COc2cccc(-c3cc([S+](C)[O-])c(C#N)c(=O)[nH]3)c2)cc1 (centres unmarked) [MMV1582497] | 210.079% | 3.781% | -9.364% |  |
| Cc1cc(Nc2ccc(F)cc2)nc(SCc2nc3ccccc3[nH]2)n1 [MMV1582498] | 46.2574% | 0.3642% | 1.096% |  |
| CCC(CC)[C@H](NC(C)=O)[C@@H]1[C@H](O)[C@@H](C(=O)O)C[C@H]1NC(=N)N [MMV1593511] | 73.923% | 0.2364% | -10.4107% |  |
| CCCCCCCCCN1C[C@@H](O)[C@H](O)[C@@H](O)[C@@H]1CO [MMV1593513] | 80.9399% | -0.861% | -3.193% |  |
| CNC(=O)C1O[C@@H](n2cnc3c(NCc4cccc(I)c4)nc(Cl)nc32)[C@H](O)[C@@H]1O (some centres unmarked) [MMV1593514] |  | -0.4087% | 0.1534% | Viability d12 (relative viability) ([1]; 10 µM): 79.1378% |
| CCOC(=O)N[C@@H]1CC[C@@H]2[C@@H](C1)C[C@H]1C(=O)O[C@H](C)[C@H]1[C@H]2/C=C/c1ccc(-c2cccc(F)c2)cn1 [MMV1593515] | 74.5757% | 1.1006% | -17.1599% |  |
| O=C(O)[C@H]1C2CCC(CC2)[C@@H]1Nc1nc(-c2c[nH]c3ncc(F)cc23)ncc1F [MMV1593516] | 121.454% | 2.198% | -18.5586% |  |
